In brackets after ≈: the same amount, converted by molar mass.
Tests used:
[1] = test system: Mycobacterium tuberculosis; experiment: Antitubercular activity against Mycobacterium tuberculosis H37Ra ATCC 25177 assessed as reduction in microbial growth after 7 days by Alamar blue assay; type: functional; details: H37Ra ATCC 25177, 168 h, time 7 day
Vero = experiment: Cytotoxicity against African green monkey Vero cells incubated for 24 hrs by MTT assay; type: cell-based; details: Chlorocebus sabaeus
[2] = Selectivity index, ratio of IC50 for cytotoxicity against African green monkey Vero cells to MIC for antimycobacterial activity against Mycobacterium tuberculosis H37Ra ATCC 25177; type: toxicity, cell-based; details: read-out: Selectivity Index
[3] = Stability of compound in acetonitrile assessed as retention time at 4.81 10^-5mol/L up to 48 hrs by HPLC-DAD method; type: physicochemical
[4] = Stability of compound in acetonitrile at 4.81 10^-5mol/L after 48 hrs by HPLC-DAD method; type: physicochemical; details: at 48.1 µM
[5] = Stability of compound in acetonitrile assessed as retention time at 4.23 10^-5mol/L up to 48 hrs by HPLC-DAD method; type: physicochemical
[6] = Stability of compound in acetonitrile at 4.23 10^-5mol/L after 48 hrs by HPLC-DAD method; type: physicochemical; details: at 42.3 µM
[7] = Stability of compound in acetonitrile at 4.76 10^-5mol/L after 48 hrs by HPLC-DAD method; type: physicochemical; details: at 47.6 µM
[8] = Stability of compound in acetonitrile assessed as retention time at 4.52 10^-5mol/L up to 48 hrs by HPLC-DAD method; type: physicochemical
[9] = Stability of compound in acetonitrile at 4.52 10^-5mol/L after 48 hrs by HPLC-DAD method; type: physicochemical; details: at 45.2 µM
[10] = Stability of compound in acetonitrile assessed as retention time at 6 10^-5mol/L up to 48 hrs by HPLC-DAD method; type: physicochemical
[11] = Stability of compound in acetonitrile at 6 10^-5mol/L after 48 hrs by HPLC-DAD method; type: physicochemical; details: at 60 µM
[12] = Stability of compound in acetonitrile assessed as retention time at 6.48 10^-5mol/L up to 48 hrs by HPLC-DAD method; type: physicochemical
[13] = Stability of compound in acetonitrile at 6.48 10^-5mol/L after 48 hrs by HPLC-DAD method; type: physicochemical; details: at 64.8 µM
[14] = Stability of compound in acetonitrile assessed as retention time at 6.05 10^-5mol/L up to 48 hrs by HPLC-DAD method; type: physicochemical
[15] = Stability of compound in acetonitrile at 6.05 10^-5mol/L after 48 hrs by HPLC-DAD method; type: physicochemical; details: at 60.5 µM

SMILES	MIC [1] [µg/mL]	further results
O=C(CC1SC(=O)NC1=O)Oc1ccc(/C=N/NC(=O)c2ccncc2)cc1Cl (stereo not drawn)	1	IC50 (Vero): 31.9 µg/mL (≈ 73.7 µM); selectivity ratio [2]: 31.9; Retention_time [3]: 7.59 min; Stabilty [4]: Stable
O=C(CC1SC(=O)NC1=O)Oc1ccc(/C=N/NC(=O)c2ccc(Br)cc2)cc1 (stereo not drawn)	256	
O=C(CC1SC(=O)NC1=O)Oc1ccc(/C=N/NC(=O)c2cccnc2)cc1Br (stereo not drawn)	512	
O=C(CC1SC(=O)NC1=O)Oc1ccc(/C=N/NC(=O)c2cccnc2)cc1 (stereo not drawn)	512	
O=C(CC1SC(=O)NC1=O)Oc1ccc(/C=N/NC(=O)c2ccc(Cl)cc2Cl)cc1 (stereo not drawn)	64	
O=C(CC1SC(=O)NC1=O)Oc1ccc(/C=N/NC(=O)c2ccncc2)cc1Br (stereo not drawn)	1	IC50 (Vero): 190 µg/mL (≈ 398 µM); selectivity ratio [2]: 190; Retention_time [5]: 8.8 min; Stabilty [6]: Stable
O=C(CC1SC(=O)NC1=O)Oc1cccc(/C=N/NC(=O)c2cccc(Cl)c2)c1 (stereo not drawn)	128	
CCOc1cc(/C=N/NC(=O)c2cccnc2)ccc1OC(=O)CC1SC(=O)NC1=O (stereo not drawn)	> 512	
CO[C@H]1/C=C/O[C@@]2(C)Oc3c(C)c(O)c4c(O)c(c(/C=N/N5CCN(C)CC5)c(O)c4c3C2=O)NC(=O)/C(C)=C\C=C\[C@H](C)[C@H](O)[C@@H](C)[C@@H](O)[C@@H](C)[C@H](OC(C)=O)[C@@H]1C [RIFAMPIN]	0.004	IC50 (Vero): 138 µg/mL (≈ 167 µM); selectivity ratio [2]: 34400
O=C(/C=C1/SC(=O)NC1=O)Oc1ccccc1/C=N/NC(=O)c1cccc(Cl)c1	64	
NNC(=O)c1ccncc1 [ISONIAZID]	0.25	
O=C(/C=C1/SC(=O)NC1=O)Oc1ccc(/C=N/NC(=O)c2cccc(Cl)c2)cc1	128	
O=C(CC1SC(=O)NC1=O)Oc1ccc(/C=N/NC(=O)c2cccnc2)cc1Cl (stereo not drawn)	512	
COc1cc(/C=N/NC(=O)c2ccncc2)ccc1OC(=O)CC1SC(=O)NC1=O (stereo not drawn)	1	IC50 (Vero): 203 µg/mL (≈ 475 µM); selectivity ratio [2]: 203; Stabilty [7]: Stable
COc1cc(/C=N/NC(=O)c2ccc(Cl)cc2Cl)ccc1OC(=O)CC1SC(=O)NC1=O (stereo not drawn)	128	
O=C(/C=C1/SC(=O)NC1=O)Oc1ccccc1/C=N/NC(=O)c1ccccn1	16	
CCOc1cc(/C=N/NC(=O)c2ccncc2)ccc1OC(=O)CC1SC(=O)NC1=O (stereo not drawn)	1	IC50 (Vero): 50.9 µg/mL (≈ 115 µM); selectivity ratio [2]: 50.9; Retention_time [8]: 7.64 min; Stabilty [9]: Stable
O=C(CC1SC(=O)NC1=O)Oc1cccc(/C=N/NC(=O)c2ccc(Cl)cc2Cl)c1 (stereo not drawn)	128	
COc1cc(/C=N/NC(=O)c2cccc(Cl)c2)ccc1OC(=O)/C=C1/SC(=O)NC1=O	128	
O=C(CC1SC(=O)NC1=O)Oc1ccc(/C=N/NC(=O)c2ccc(Cl)cc2)cc1 (stereo not drawn)	128	
CCOc1cc(/C=N/NC(=O)c2ccccn2)ccc1OC(=O)CC1SC(=O)NC1=O (stereo not drawn)	> 512	
COc1cc(/C=N/NC(=O)c2cccc(Cl)c2)ccc1OC(=O)CC1SC(=O)NC1=O (stereo not drawn)	128	
CN[C@@H]1[C@H](O[C@H]2[C@H](O[C@H]3[C@H](O)[C@@H](O)[C@H](N=C(N)N)[C@@H](O)[C@@H]3N=C(N)N)O[C@@H](C)[C@]2(O)C=O)O[C@@H](CO)[C@H](O)[C@H]1O [STREPTOMYCIN]	0.5	
O=C(/C=C1/SC(=O)NC1=O)Oc1cccc(/C=N\NC(=O)c2ccncc2)c1	1	IC50 (Vero): 143 µg/mL (≈ 361 µM); selectivity ratio [2]: 143; Retention_time [10]: 4.36 min; Stabilty [11]: Stable
O=C(CC1SC(=O)NC1=O)Oc1ccc(/C=N/NC(=O)c2ccncc2)cc1 (stereo not drawn)	1	IC50 (Vero): 91.7 µg/mL (≈ 230 µM); selectivity ratio [2]: 91.7; Retention_time [12]: 3.48 min; Stabilty [13]: Stable
CC[C@@H](CO)NCCN[C@@H](CC)CO [ETHAMBUTOL]	2	
O=C(CC1SC(=O)NC1=O)Oc1ccc(/C=N/NC(=O)c2cccc(Cl)c2)cc1 (stereo not drawn)	128	
O=C(/C=C1/SC(=O)NC1=O)Oc1ccccc1/C=N/NC(=O)c1ccncc1	4	IC50 (Vero): > 200 µg/mL; selectivity ratio [2]: > 50; Retention_time [14]: 4.36 min; Stabilty [15]: Stable
O=C(/C=C1/SC(=O)NC1=O)Oc1ccccc1/C=N/NC(=O)c1cccnc1	128	
